In patent US11304946B2, “2-hetarylpyrimidine-4-carboxamides as aryl hydrocarbon receptor antagonists” (Bayer Aktiengesellschaft, priority 2017, dated 2022):

Key:
Mouse AhR = target: T1, Mouse AhR (Mus musculus, UniProt P30561); assay: Transactivation assay in mouse cell line (in vitro assay 2: antagonism); format: cell-based; details: Hepa 1c1c7 cells, AHR inducible (DRE) firefly luciferase reporter, 200 μM kynurenic acid, 20 hours
T1 sequence (P30561 1-848): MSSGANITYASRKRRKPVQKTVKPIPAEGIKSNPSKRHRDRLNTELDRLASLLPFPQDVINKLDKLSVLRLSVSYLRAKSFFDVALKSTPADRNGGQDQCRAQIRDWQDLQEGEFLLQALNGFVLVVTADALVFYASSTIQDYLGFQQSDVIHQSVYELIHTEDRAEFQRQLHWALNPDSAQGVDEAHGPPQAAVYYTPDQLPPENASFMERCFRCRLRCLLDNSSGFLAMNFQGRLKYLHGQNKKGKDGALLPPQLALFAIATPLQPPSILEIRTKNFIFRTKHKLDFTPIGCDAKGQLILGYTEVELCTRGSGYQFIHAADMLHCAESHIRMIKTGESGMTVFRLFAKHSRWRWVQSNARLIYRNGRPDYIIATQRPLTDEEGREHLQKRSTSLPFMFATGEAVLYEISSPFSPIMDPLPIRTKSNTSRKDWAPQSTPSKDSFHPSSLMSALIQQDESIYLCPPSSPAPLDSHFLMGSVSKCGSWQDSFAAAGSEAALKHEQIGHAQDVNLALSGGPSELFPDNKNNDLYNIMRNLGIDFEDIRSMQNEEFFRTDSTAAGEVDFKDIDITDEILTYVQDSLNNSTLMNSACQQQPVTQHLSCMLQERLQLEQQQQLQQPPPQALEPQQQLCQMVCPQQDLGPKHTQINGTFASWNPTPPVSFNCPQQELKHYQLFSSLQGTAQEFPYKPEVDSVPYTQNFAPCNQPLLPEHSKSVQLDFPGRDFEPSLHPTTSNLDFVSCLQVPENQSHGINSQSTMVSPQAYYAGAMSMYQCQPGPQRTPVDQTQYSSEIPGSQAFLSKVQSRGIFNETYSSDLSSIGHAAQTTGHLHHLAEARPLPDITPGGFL
Protocol: Transactivation Assay in Mouse Cell Line (In Vitro Assay 2)
(§1) Transactivation assay was carried out in Hepa 1c1c7 cells (ATCC #CRL-2026) endogenously expressing AHR. In addition the cells were stably transfected with an AHR inducible firefly luciferase reporter gene construct that carried AHR-binding sites (DRE) in its promoter. Kynurenic acid is an endogenous AHR activating ligand and was used to prestimulate test cells prior to testing the antagonistic properties of compounds.
In Vitro Assay 2: Antagonism in Mouse Cell Line
Firefly luciferase activity was determined by the SteadyGlo Luciferase Assay System (Promega, #E2550).

Human AhR = target: T2, Human AhR (Homo sapiens, UniProt P35869); assay: Transactivation assay in human cell line (in vitro assay 1: antagonism); format: cell-based; details: U87 glioblastoma cells, AHR inducible (DRE) firefly luciferase reporter, 150 μM kynurenic acid, 20 hours
T2 construct: host or cells: U87 glioblastoma cells, stably transfected with DRE-driven firefly luciferase and constitutive renilla reporter constructs
T2 sequence (P35869 11-848): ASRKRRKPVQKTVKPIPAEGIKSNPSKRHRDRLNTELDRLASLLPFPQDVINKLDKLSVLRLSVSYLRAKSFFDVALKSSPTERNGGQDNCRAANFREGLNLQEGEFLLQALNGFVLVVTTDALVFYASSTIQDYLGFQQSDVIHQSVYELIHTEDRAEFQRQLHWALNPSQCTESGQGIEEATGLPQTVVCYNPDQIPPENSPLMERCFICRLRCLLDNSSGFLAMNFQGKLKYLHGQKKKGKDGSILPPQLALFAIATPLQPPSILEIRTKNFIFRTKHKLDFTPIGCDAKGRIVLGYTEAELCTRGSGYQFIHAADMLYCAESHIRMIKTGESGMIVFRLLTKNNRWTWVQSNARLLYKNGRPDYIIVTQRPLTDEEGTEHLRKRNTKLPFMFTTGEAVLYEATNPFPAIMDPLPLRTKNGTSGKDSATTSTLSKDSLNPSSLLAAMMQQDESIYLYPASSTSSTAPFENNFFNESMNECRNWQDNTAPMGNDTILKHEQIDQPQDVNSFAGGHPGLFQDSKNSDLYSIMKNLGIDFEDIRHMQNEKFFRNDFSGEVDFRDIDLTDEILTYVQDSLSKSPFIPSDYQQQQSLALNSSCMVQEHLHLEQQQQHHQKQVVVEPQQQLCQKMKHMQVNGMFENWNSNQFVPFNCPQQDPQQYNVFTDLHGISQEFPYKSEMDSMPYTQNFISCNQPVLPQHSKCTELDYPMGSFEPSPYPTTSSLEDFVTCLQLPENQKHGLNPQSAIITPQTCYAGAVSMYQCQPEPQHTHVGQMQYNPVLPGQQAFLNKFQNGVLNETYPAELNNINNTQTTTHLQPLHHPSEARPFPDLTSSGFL
Protocol: Transactivation Assay in Human Cell Line (In Vitro Assay 1)
as §1, with “U87 glioblastoma” for “Hepa 1c1c7”, “(ATCC)” for “(ATCC #CRL-2026)”, “its promoter and a renilla reporter gene construct with constitutively active” for “its”
In Vitro Assay 1: Antagonism in Human Cell Line
Firefly luciferase and Renilla activity was determined by the DualGlo Luciferase Assay System (Promega, #2920). Renilla activity was used to assess toxic effects of compounds.

Compound | IC50 (Mouse AhR) [nM] | IC50 (Human AhR) [nM]
C[C@@H](CO)NC(=O)c1cc(-c2ccc(Cl)cc2)nc(-c2cccnc2)n1 [Example 9, 6-(4-chlorophenyl)-N-[(2S)-1-hydroxypropan-2-yl]-2-(pyridin-3-yl)pyrimidine-4-carboxamide] | 2.84 | 1.1
C[C@H](CO)NC(=O)c1cc(-c2ccc(Cl)cc2)nc(-c2cnn(C)c2)n1 [Example 12, 6-(4-chlorophenyl)-N-[(2R)-1-hydroxypropan-2-yl]-2-(1-methyl-1H-pyrazol-4-yl)pyrimidine-4-carboxamide] | 206 | 73.4
Cn1cc(-c2nc(C(=O)NCC(C)(C)O)cc(-c3ccc(Cl)cc3)n2)cn1 [Example 13, 6-(4-chlorophenyl)-N-(2-hydroxy-2-methylpropyl)-2-(1-methyl-1H-pyrazol-4-yl)pyrimidine-4-carboxamide] | 58.1 | 14.3
CC(C)(O)CNC(=O)c1cc(-c2ccc(OC(F)(F)F)cc2)nc(-c2cnoc2)n1 [Example 22, N-(2-hydroxy-2-methylpropyl)-2-(1,2-oxazol-4-yl)-6-[4-(trifluoromethoxy)phenyl]pyrimidine-4-carboxamide] | 5530 | 1100
Cc1[nH]ncc1-c1nc(C(=O)NCC(C)(C)O)cc(-c2ccc(OC(F)(F)F)cc2)n1 [Example 24, N-(2-hydroxy-2-methylpropyl)-2-(3-methyl-1H-pyrazol-4-yl)-6-[4-(trifluoromethoxy)phenyl]pyrimidine-4-carboxamide] | 359 | 208
C[C@@H](CO)NC(=O)c1cc(-c2ccc(OC(F)(F)F)cc2)nc(-c2ccc(Cl)s2)n1 [Example 32, 2-(5-chlorothiophen-2-yl)-N-[(2S)-1-hydroxypropan-2-yl]-6-[4-(trifluoromethoxy)phenyl]pyrimidine-4-carboxamide] | 38.8 | 46.2

Continued by falling IC50 (Mouse AhR), values first:

IC50 (Mouse AhR) [nM] | IC50 (Human AhR) [nM] | Compound
2130 | 379 | Cc1ncc(-c2nc(C(=O)NCC(C)(C)O)cc(-c3ccc(OC(F)(F)F)cc3)n2)cn1 [Example 21, N-(2-hydroxy-2-methylpropyl)-2′-methyl-6-[4-(trifluoromethoxy)phenyl][2,5′-bipyrimidine]-4-carboxamide]
354 | 717 | CC(C)(O)CNC(=O)c1cc(-c2ccc(OC(F)(F)F)cc2)nc(-c2cn[nH]c2)n1 [Example 20, N-(2-hydroxy-2-methylpropyl)-2-(1H-pyrazol-4-yl)-6-[4-(trifluoromethoxy)phenyl]pyrimidine-4-carboxamide]
229 | 167 | C[C@@H](CO)NC(=O)c1cc(-c2ccc(OC(F)(F)F)cc2)nc(-c2ccc(C#N)s2)n1 [Example 28, 2-(5-cyanothiophen-2-yl)-N-[(2S)-1-hydroxypropan-2-yl]-6-[4-(trifluoromethoxy)phenyl]pyrimidine-4-carboxamide]
110 | 8.05 | Cc1nn(C)cc1-c1nc(C(=O)NCC(C)(C)O)cc(-c2ccc(OC(F)(F)F)cc2)n1 [Example 25, 2-(1,3-dimethyl-1H-pyrazol-4-yl)-N-(2-hydroxy-2-methylpropyl)-6-[4-(trifluoromethoxy)phenyl]pyrimidine-4-carboxamide]
8.42 | 1.38 | CC(C)(O)CNC(=O)c1cc(-c2ccc(Cl)cc2)nc(-c2cccnc2)n1 [Example 10, 6-(4-chlorophenyl)-N-(2-hydroxy-2-methylpropyl)-2-(pyridin-3-yl)pyrimidine-4-carboxamide]
7.94 | 3.93 | C[C@@H](CO)NC(=O)c1cc(-c2ccc(Cl)cc2)nc(-c2cnn(C)c2)n1 [Example 11, 6-(4-chlorophenyl)-N-[(2S)-1-hydroxypropan-2-yl]-2-(1-methyl-1H-pyrazol-4-yl)pyrimidine-4-carboxamide]
7.19 | 2.57 | Cn1cc(-c2nc(C(=O)NCC(C)(C)O)cc(-c3ccc(C(F)(F)F)cc3)n2)cn1 [Example 8, N-(2-hydroxy-2-methylpropyl)-2-(1-methyl-1H-pyrazol-4-yl)-6-[4-(trifluoromethyl)phenyl]pyrimidine-4-carboxamide]
